# Data published in patent US12428445B2, “Mini-nucleosome core proteins and use in nucleic acid delivery” (priority 2018, dated 2025).
# Where no end group is shown, it is not given here. [ ]: non-standard residue; d: D form. LINKER = not defined here
# Legend:
# muscle cells = experiment: Intramuscular delivery, GFP fluorescence and dystrophin immunolabeling in leg muscle sections; format: in vivo; conditions: 17.5 ug per leg, Balb/c mice, 3-months post injection
# Procedure: Balb/c mice were anesthetized by IP injection with Ketamine/Xylazine (90-100 mg/kg+10 mg/kg) and several loaded mini-nucleosomes were injected into both leg muscle at 17.5 ug doses per leg using an insulin syringe (Total dose 35 micrograms per mice). Mice were sacrificed at various time points and leg muscle were obtained for tissue sections. […] One skilled in the art may contemplate combining such domains with other domains known for muscle tropism.
# To validate muscle specificity of expression of genes encoded by the nucleic acid cargo, we utilized dystrophin immunolabeling as an endogenous secondary marker. […] Native fluorescence of GFP was obtained in the 486-nm channel of Leica SP5 scope. Dystrophin in red is the RFP channel (555-nm). Untransduced muscle cells in figure also serve as internal control for differentiation between GFP signal and autofluorescence.
# [1] = Transmission Electron Microscopy (TEM) of loaded mini-nucleosomes (shape); format: physicochemical; conditions: Luciferase plasmid (SEQ ID NO: 396) condensed with core protein; final formulation in sterile, endotoxin free water
# Text: Provided in this Example are techniques to produce loaded mini-nucleosomes in various formulations, including formulations useful for administration to cells and to mammalian subjects, e.g., humans. Loaded mini-nucleosomes can be formulated to different shape and/or sizes parameters based on the mini-nucleosome core protein amino acid sequence and the buffer conditions in which the synthesis occurs. Loaded mini-nucleosomes can be formulated in different conditions, e.g., with solubility suitable for therapeutic use. Solubility of loaded mini-nucleosomes in water and/or normal saline is one means to allow non-toxic formulation of compositions for administration to patients, and to ease of delivery into patients. To form loaded mini-nucleosomes represented in FIG. 7, core proteins were synthesized by solid phase synthesis using trifluoroacetate buffers. 200 micrograms of DNA (SEQ ID NO: 396) were added to 1 milligram of lyophilized core proteins and vortexed together, and purified to produce loaded mini-nucleosomes (FIG. 7). Buffer exchange was performed and final formulation of mini-nucleosome was made in sterile, endotoxin free water. 1 microgram of each kind of mini-nucleosomes was diluted in water and then placed on grids that were stained with freshly prepared in 0.75% uranyl acetate in methanol solution for two minutes. […]
# retina and RPE cells = experiment: Intraocular (intravitreal) delivery, native GFP fluorescence in retinal sections and RPE whole mounts; format: in vivo; conditions: 1.5 micrograms, Balb/c mice
# Procedure: In the present Example, Balb/c mice were anesthetized by IP injection with Ketamine/Xylazine (90-100 mg/kg+10 mg/kg) and positioned underneath a microscope. Mice eyes were dilated with topical Tropicamide (1%) and 1 ul of loaded mini-nucleosomes (total dose 1.5 micrograms in mice) were injected into the vitreous cavity using 32 gauze blunt needle passing through the incision made by a 25-gauze needle below the limbus. At various time points, mice were perfused with 10 ml of 1×PBS, and then sacrificed using standard techniques. Mice were enucleated and eyecups were collected and incubated in 4% paraformaldehyde overnight. The eyecups were washed with 1×PBS, then immersed in 15% sucrose for few hours and then in 30% sucrose solution overnight for cryopreservation. The eyecups were then placed in a plastic vial and frozen using OCT compound for cryo-sectioning. 10-micron thick tissue sections were obtained for staining. The retinal sections were mounted with mounting media with or without DAPI, coverslip and sealed. Images were acquired by Leica SP5. For whole mount imaging, eyecups were fixed in 4% paraformaldehyde overnight. Eyecups were washed in 1×PBS, retina was removed and the remaining eyecup or RPE wholemount was processed for staining. The RPE tissue was whole mounted with mounting media, coverslip and sealed. Images were acquired by Leica SP5.
# To target the RPE cells, the present Example utilized a mini-nucleosome core protein (SEQ ID NO: 392) that could bind to the phagocytic proteins like MERTK. RPE are phagocytic cells, that extend their microvilli to the photoreceptor inner/outer segment junction. MERTK is expressed in those microvilli. In SEQ ID NO: 392, we incorporated the “eat me” signals as descried in Table 8. In literature, “eat me” signals are described as domains exposed in cellular debris that are primed for phagocytosis (Wei Li, Journal of Cell physiology, 2016, which is incorporated herein by reference). To the present inventor's knowledge, these “eat me” signals have never been utilized in the context of non-viral vectors before. […]
Substance,GFP fluorescence in muscle tissue sections at 3 months (muscle cells),Shape of loaded mini-nucleosome (TEM) [1],GFP expression / transduction in retina and RPE (retina and RPE cells)
"CKKKKKKKKKKKKKKKKKKKKKKKKKKKKKK [SEQ ID NO: 393, reference compound]",didn't exhibit GFP fluorescence,spiral/helical-shaped,–
KKKRHRKKKKK-[LINKER]-RGD-[LINKER]-KKKK-[LINKER]-NTQIH-[LINKER]-RRRRR-[LINKER]-TPH-[LINKER]-KK (KKKRHRKKKKK[LINKER]RGD[LINKER]KKKK[LINKER]NTQIH[LINKER]RRRRR[LINKER]TPH[LINKER]KK; reading uncertain; also: linker structure not given here) [SEQ ID NO: 391],sharp green fluorescence in skeletal muscle cells,mixture of circular and rod like molecules,–
KKKRHRKRKRKRKRRRRKKK-[LINKER]-ASSLNIAK-[LINKER]-RRRR (KKKRHRKRKRKRKRRRRKKK[LINKER]ASSLNIAK[LINKER]RRRR; reading uncertain; also: linker structure not given here) [SEQ ID NO: 389],didn't exhibit GFP fluorescence,–,–
SEQ ID NO. 388 (KKRHRKLREKRHRKLRRRRRLKRHRKKRHRKLREK; not fully specified),–,–,express GFP to target neuronal cells in the retina
SEQ ID NO. 392 (KKKRKKTKKKAKKALKKKKKGKKKKRRRRKAAPKK; not fully specified),–,–,enhanced uptake into the RPE
SEQ ID NO:388 (KKRHRKLREKRHRKLRRRRRLKRHRKKRHRKLREK; not fully specified),–,–,"transduction into ganglion cells, bipolar cells and photoreceptors"
